Laboratory results published in US20080155704A1, “Methods and Compositions for Determining in vivo Activity of BiP” (King's College London, priority 2006, published 2008).

What was measured:
Format in all cases: cell-based, human
[1] = system: monocyte-derived dendritic cells; assay: Surface expression of phenotypic markers on monocyte-derived dendritic cells (immunofluorescence, flow cytometry)
Experimental: Purified monocytes (>85% monocytes)(1.5.10^6/flask)(Corning Costar, High Wycombe, UK) were incubated in 5 ml of tissue culture medium (TCM)(RPMI 1640 medium (Sigma, Poole, UK) supplemented with 10% heat-inactivated foetal calf serum (FCS)(Life Technologies, Paisley, UK). iDC were generated using granulocyte macrophage—colony stimulating factor (GM-CSF) (1000 U/ml)(Novartis Research Institute, Vienna, Austria) and IL-4 (500 U/ml) (R&D Systems, Oxford, UK). Monocytes were cultured for 3 or 7 days with cytokines, either alone or in the presence of rhuBiP (20 μg/ml). Mature DC were generated by addition of 500 ng/ml lipopolysaccharide (LPS) for the final 2 days of culture.
Immunofluorescent staining was performed as follows when required. Cells were suspended in immunofluorescent buffer (IF) (PBS/0.1% BSA/0.05% azide) washed and incubated for 10 mins on ice with normal human serum. After washing twice in IF buffer, saturating concentrations of fluorescein isothiocyanate (FITC)-, phycoerythrin (PE) or peridium chlorophyll (Per-CP)-conjugated monoclonal antibodies (mAb) recognizing human CD14, CD86, CD80, HLA-DR, CD11c, CD1a, CD83, CD40 and CD85j, (all from Becton Dickinson/PharMingen, Oxford, UK) were added singly or in combination, as stated in the text, to cells for 20 mins on ice. Cells were then washed twice in IF buffer and analysed. Isotype controls, IgG1 and IgG2a (Becton Dickinson, Oxford, UK) were used in parallel.
Purified monocytes were cultured with and without BiP for three days (early DC/early DC(BiP)) or 7 days with GM-CSF and IL-4 (iDC/iDC(BiP)) or for 7 days with additional LPS for the final 2 days (mDC/mDC(BiP)). *BiP [20 μg/ml] was added at the same time as the cytokines. (a) and (b): Results are expressed as mean and standard error (mean ±SE) of the % positive cells from 4 or 7 different experiments, respectively.
Table A: Surface expression of phenotypic markers: Purified monocytes were differentiated into immature dendritic cells (iDC) with GM-CSF and IL-4 for 7d in the presence or absence of BiP (20 μg/ml). LPS (500 ng/ml) was added for the final 2d to give mature DC(mDC). Cell surface expression of molecules was measured by immunofluorescence and flow cytometry. Results are expressed as mean and standard deviation (mean ±SD) of the mean fluorescent intensity (MFI) from 7 different experiments:
Purified MO (>85% monocytes)(1.5.106/flask)(Corning Costar, High Wycombe, UK) were incubated in 5 ml of tissue culture medium (TCM)(RPMI 1640 medium (Sigma, Poole, UK) supplemented with 10% heat-inactivated foetal calf serum (FCS)(Life Technologies, Paisley, UK). iDC were generated by culturing MO with granulocyte macrophage-colony stimulating factor (GM-CSF) (1000 U/ml)(Novartis Research Institute, Vienna, Austria) and IL-4 (500 U/ml) (R&D Systems, Oxford, UK) for 3 or 7d, either alone or in the presence of rhuBiP (20 μg/ml). Cytokines and BiP were replenished every 2d. Mature DC were generated by addition of LPS (500 ng/ml) for the final 2d of a 7d culture.
Immunofluorescent staining was performed, as described previously (39), on DC harvested at day 7, T cells after 4 days co-culture with DC. Saturating concentrations of fluorescein isothiocyanate (FITC)-, phycoerythrin (PE) or peridium chlorophyll (Per-CP)-conjugated mAb were added recognizing CD14, CD86, CD80, HLA-DR, CD11c, CD1a, CD83, CD85j, IL-10 receptor; purity of the negatively selected MO and T cells was checked using CD3, CD4, CD14, CD20 and CD57 (all from Becton Dickinson/PharMingen (BD), Oxford, UK). Intracellular staining was carried out following fixation of cells with 1% paraformaldehyde for 5 minutes. Cells were then washed with immunofluorescence buffer (PBS/0.1% BSA/0.05% azide) containing 0.3% saponin. 0.3% saponin was then present in all solutions thereafter. CD152/CTLA-4 (BD, Oxford UK) and IDO (Santa Cruz, Autogen Bioclear, UK) were intracellular stains. Isotype controls, IgG1 and IgG2a (BD, Oxford, UK) were used in parallel. […]

IL-8 gene = assay: Affymetrix gene array of BiP treated monocytes; details: monocytes cultured with BiP for 24 h compared with unstimulated monocytes
Text: This was confirmed in two Affymetrix™ gene arrays and also in an inflammatory cytokine gene array.
The transcription profiles of the BiP stimulated and unstimulated MO were generated using the Human GeneChip U95Av2 which simultaneously measures 12500 gene transcripts. To identify genes differentially expressed in the presence of BiP, comparisons were made between the transcription profiles obtained from the MO using the analysis software dChip version 1.2 (32).

IL-8 = IL-8 in supernatants of PBMC from rheumatoid arthritis patients (MSD multicytokine array); details: PBMC of RA patients on methotrexate, BiP 20 μg/ml, 96 h, 16 paired samples, p=0.0001
Experimental: Peripheral blood mononuclear cells (PBMC) were separated from heparinised blood taken from patients with rheumatoid arthritis being treated with methotrexate. PBMC were either left unstimulated or stimulated with BiP (20 μg/ml). Supernatants were taken at 96 h, aliquoted and stored at −80° C. until required.
Supernatants from unstimulated or BiP stimulated cultures were analysed in a multicytokine array (MSD). The results from 16 paired samples are shown as median and 95 percent confidence limits.

[2] = Early iDC(BiP): 3 days GM-CSF and IL-4, BiP 20 μg/ml, mean ±SE
[3] = iDC(BiP): 7 days GM-CSF and IL-4, BiP 20 μg/ml, mean ±SE
[4] = mDC(BiP), BiP 20 μg/ml, mean fluorescence intensity, up to 7 experiments
[5] = mDC(BiP): 7 days GM-CSF and IL-4, LPS final 2 days, BiP 20 μg/ml, mean ±SE

BiP: 78 kD endoplasmic reticulum chaperone protein as disclosed in WO 00/21995; recombinant human protein
% cells CD1a+ [1, 2]: 1 ± 2%
% cells CD11c+ [1, 2]: 81 ± 7%
% cells CD80+ [1, 2]: 36 ± 15%
% cells CD83 [1, 2]: 2. ± 2%
% cells CD86+ [1, 2]: 3 ± 1%
% cells HLA-DR [1, 2]: 31 ± 7%
% cells CD14 ([1]; Early iDC(BiP): monocytes 3 days with GM-CSF and IL-4, BiP 20 μg/ml, mean ±SE): 91 ± 6%
MFI CD11c ([1]; iDC(BiP), BiP 20 μg/ml, mean fluorescence intensity, up to 7 experiments): 2246 ± 329
% positive cells CD40+85j+ ([1]; iDC(BiP): 7 days GM-CSF and IL-4, BiP 20 μg/ml): 26±19%
% positive cells CD1a+ [1, 3]: 83 ± 9%
% positive cells CD11c+ [1, 3]: 97 ± 2%
% positive cells CD14+ [1, 3]: 59 ± 22%
% positive cells CD40+ [1, 3]: 28 ± 20%
% positive cells CD80+ [1, 3]: 88 ± 7%
% positive cells CD83+ [1, 3]: 10 ± 5%
% positive cells CD86+ [1, 3]: 31 ± 11%
% positive cells CD210+ [1, 3]: 12 ± 9%
% positive cells HLA-DR+ [1, 3]: 96 ± 2%
maturation as determined by upregulation of CD83 after addition of LPS ([1]; mDC(BiP) (FIG. 10C)): failed to mature
CD40 expression by mDC(BiP) ([1]; mDC(BiP) versus mDC): no difference in CD40 expression
MFI CD1a [1, 4]: 685 ± 145
MFI CD14 [1, 4]: 366 ± 216
MFI CD80 [1, 4]: 395 ± 31
MFI CD86 [1, 4]: 112 ± 14
MFI HLA-DR [1, 4]: 1660 ± 167
cell surface expression of CD85j (ILT2) ([1]; mDC(BiP), n=4): 87.2±3.5%
% positive cells CD1a+ [1, 5]: 76 ± 14%
% positive cells CD11c+ [1, 5]: 94 ± 5%
% positive cells CD14+ [1, 5]: 57 ± 22%
% positive cells CD40+ [1, 5]: 32 ± 24%
% positive cells CD40+85j+ [1, 5]: 29 ± 23%
% positive cells CD80+ [1, 5]: 91 ± 6%
% positive cells CD83+ [1, 5]: 10 ± 4%
% positive cells CD86+ [1, 5]: 26 ± 9%
% positive cells CD210+ [1, 5]: 19 ± 17%
% positive cells HLA-DR+ [1, 5]: 96 ± 1%
CD14 and CD86 expression on DC cultured in the presence of BiP ([1]; mature DC, dose-dependent 0.5-20 μg/ml BiP (FIG. 10B)): sustained CD14 expression and failed to upregulate CD86
IL-8 gene expression (IL-8 gene): downregulated the IL-8 gene
IL-8 production (IL-8): significantly less IL-8
